The values below come from ChEMBL document CHEMBL1201862, “PubChem BioAssay data set” (2004).

Some test systems named below: SF-539; SNB-19; UO-31; HL-60; MDA-MB-435; DU-145; T47D; HCT-15; TK-10; RXF 393; M14; HCC 2998; SN12C; NCI-H522; HOP-92; NCI-H23; HOP-62; NCI-H226; PC-3.
Assay in all cases: NCI-60 cell line screen, 48 h

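Grown in 96-well plates, cells were treated for 48 hours with each compound at five concentrations. Insufficient inhibition: endpoint recorded as highest concentration tested. GI50 is the concentration that inhibits growth by half.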 Calls of active or inactive are those of the source. Rule as the data show it: active = GI50 up to about 1.1 µM and inactive = higher.

Consider `O=C(CSCC(=O)N/N=C\c1cccc([N+](=O)[O-])c1)N/N=C\c1cccc([N+](=O)[O-])c1`, for which the GI50 is 24 µM (inactive) with SF-539; 18 µM (inactive) in the experiment with SNB-19; 34.4 µM (inactive) in the experiment on UO-31; > 100 µM (inactive) with HL-60; > 100 µM (inactive) in the experiment with MDA-MB-435; 54.1 µM (inactive) in the experiment on DU-145. The GI50 with T47D is 34.1 µM (inactive); with HCT-15 it was 25.5 µM; with TK-10, 17.4 µM (inactive); in the experiment on RXF 393, 49.8 µM (inactive); in the experiment on M14 it was > 100 µM (inactive); with HCC 2998, 30.9 µM (inactive). The GI50 was 68.9 µM (inactive) in the experiment with SN12C; 43.8 µM (inactive) in the experiment on NCI-H522; 32.4 µM (inactive) with HOP-92; 14.2 µM (inactive) in the experiment with NCI-H23; 2.01 µM (inactive) in the experiment with HOP-62; > 100 µM (inactive) with NCI-H226.

For `CCOP(=O)(OCC)C1C(CO)OC(n2ccc(=O)[nH]c2=O)C1O` (stereo not drawn), the GI50 in the experiment with SF-539 was > 100 µM (inactive); in the experiment on SNB-19 it was > 100 µM (inactive); in the experiment with UO-31, > 100 µM (inactive); in the experiment with HL-60, > 100 µM (inactive); in the experiment with T47D, > 100 µM (inactive); in the experiment on HCT-15, > 100 µM. In addition, the GI50 in the experiment with TK-10 was > 100 µM (inactive); in the experiment on RXF 393, > 100 µM (inactive); with M14 it was > 100 µM (inactive); with HCC 2998 it was 78.7 µM (inactive); with SN12C it was > 100 µM (inactive); with NCI-H522 it was > 100 µM (inactive). Besides, the GI50 in the experiment on HOP-92, in the experiment with PC-3, in the experiment with HOP-62 and in the experiment on NCI-H226 was > 100 µM (inactive) each time.

For `Cc1cc(S(=O)(=O)Nc2nc(N)nc(N3CCOCC3)n2)c(SCC(=O)O)cc1Cl`, the GI50 in the experiment on SF-539, in the experiment with SNB-19, in the experiment on UO-31, in the experiment on HL-60, in the experiment on DU-145 and in the experiment with T47D was > 10 µM (inactive) each time. Further, the GI50 in the experiment with HCT-15 was > 10 µM; in the experiment on TK-10, > 10 µM (inactive); with RXF 393 it was > 10 µM (inactive); in the experiment on M14 it was > 10 µM (inactive); in the experiment on HCC 2998 it was > 10 µM (inactive); in the experiment on SN12C it was > 10 µM (inactive). In addition, the GI50 with NCI-H522, in the experiment on HOP-92, in the experiment with NCI-H23, with PC-3, in the experiment with HOP-62 and in the experiment with NCI-H226 was > 10 µM (inactive) each time.

For the compound `CCOC(=O)c1ncn(CCc2ccc(Cl)cc2)c1C`, the GI50 in the experiment with SF-539 is > 100 µM (inactive); in the experiment with SNB-19 it was > 100 µM (inactive); in the experiment on UO-31 it was 34.5 µM (inactive); in the experiment on HL-60, > 100 µM (inactive); in the experiment with MDA-MB-435, > 100 µM (inactive); with DU-145, > 100 µM (inactive). Besides, the GI50 was > 100 µM in the experiment on HCT-15; > 100 µM (inactive) in the experiment with TK-10; > 100 µM (inactive) in the experiment on RXF 393; 26.3 µM (inactive) in the experiment with M14; > 100 µM (inactive) with HCC 2998; > 100 µM (inactive) with SN12C. For the same compound, the GI50 was 34.4 µM (inactive) in the experiment on NCI-H522; > 100 µM (inactive) in the experiment on HOP-92; > 100 µM (inactive) with NCI-H23; > 100 µM (inactive) in the experiment on PC-3; > 100 µM (inactive) in the experiment with HOP-62; > 100 µM (inactive) in the experiment on NCI-H226.

With `COc1ccc(NC(S)=Nc2ccccc2)cc1`, the GI50 with SF-539 was > 100 µM (inactive); with SNB-19 it was > 100 µM (inactive); with UO-31, > 100 µM (inactive); with HL-60, 24.2 µM (inactive); in the experiment with MDA-MB-435 it was > 100 µM (inactive); with DU-145 it was > 100 µM (inactive). Further, the GI50 is > 100 µM with HCT-15; > 100 µM (inactive) with TK-10; 98.2 µM (inactive) in the experiment on RXF 393; > 100 µM (inactive) in the experiment with M14; > 100 µM (inactive) in the experiment on HCC 2998; > 100 µM (inactive) with SN12C. Moreover, the GI50 in the experiment on NCI-H522, in the experiment with HOP-92, with NCI-H23, in the experiment on PC-3, in the experiment with HOP-62 and in the experiment with NCI-H226 was > 100 µM (inactive) in each case.

`Cc1c(S(=O)(=O)N/C(N)=N/c2ccc(Cl)cc2)sc2ccc(Cl)cc12`: the GI50 is 23.9 µM (inactive) in the experiment with SF-539; 21.4 µM (inactive) in the experiment with SNB-19; 15.3 µM (inactive) with UO-31; 25.8 µM (inactive) in the experiment on HL-60; 18.5 µM (inactive) in the experiment with DU-145; 29.7 µM (inactive) with T47D. Moreover, the GI50 in the experiment with HCT-15 was 19.4 µM; with TK-10, 19.9 µM (inactive); in the experiment with RXF 393 it was 48.6 µM (inactive); in the experiment with M14, 17.3 µM (inactive); in the experiment with SN12C, 15.7 µM (inactive); in the experiment on NCI-H522, 14 µM (inactive). The GI50 in the experiment with HOP-92 was 22.6 µM (inactive); in the experiment on NCI-H23, 18 µM (inactive); in the experiment on PC-3 it was 14.7 µM (inactive); in the experiment with HOP-62, 18.5 µM (inactive); in the experiment on NCI-H226, 20.4 µM (inactive).

For `COc1cc(C2NCCC(c3ccccc3)(c3ccccc3)N2)cc(OC)c1OC` (stereo not drawn), the GI50 in the experiment with SF-539 is 11.3 µM (inactive); in the experiment with SNB-19 it was 55.7 µM (inactive); in the experiment on UO-31, 12.2 µM (inactive); in the experiment with HL-60, 5.83 µM (inactive); in the experiment with MDA-MB-435, 18.5 µM (inactive); in the experiment with DU-145, 97.3 µM (inactive). Besides, the GI50 in the experiment on T47D was 58.2 µM (inactive); in the experiment on HCT-15, 38.5 µM; in the experiment on TK-10, 9.31 µM (inactive); in the experiment on RXF 393, 42.7 µM (inactive); in the experiment with M14, 11.7 µM (inactive); in the experiment with HCC 2998, 20.7 µM (inactive). Moreover, the GI50 is 59.3 µM (inactive) with SN12C; 3.52 µM (inactive) in the experiment with HOP-92; 23.4 µM (inactive) with NCI-H23; 34 µM (inactive) in the experiment on HOP-62; 12.7 µM (inactive) in the experiment on NCI-H226.

Regarding `O=C1C(=CNc2ccc([N+](=O)[O-])cc2)C(=O)N(c2ccccc2)C(=O)N1c1ccccc1`, the GI50 in the experiment on SNB-19 was > 100 µM (inactive); in the experiment on UO-31 it was > 100 µM (inactive); in the experiment on MDA-MB-435 it was > 100 µM (inactive); in the experiment with T47D, 70.1 µM (inactive); with HCT-15, 76 µM; in the experiment with TK-10, 25.5 µM (inactive). For the same compound, the GI50 with RXF 393 was > 100 µM (inactive); in the experiment with M14 it was 73.1 µM (inactive); in the experiment on HCC 2998, > 100 µM (inactive); in the experiment with SN12C it was > 100 µM (inactive); in the experiment on NCI-H522 it was > 100 µM (inactive); in the experiment on HOP-92, > 100 µM (inactive). Further, the GI50 in the experiment on NCI-H23, in the experiment with PC-3, with HOP-62 and in the experiment with NCI-H226 was > 100 µM (inactive) throughout.

Consider `Cc1cc2nc3c(C#N)c4c(c(Cl)n3c2cc1C)CCC4`, for which the GI50 with SF-539 was 25.3 µM (inactive); in the experiment with MDA-MB-435, 19.3 µM (inactive); in the experiment with T47D, 40.7 µM (inactive); in the experiment with HCT-15, 17.6 µM; with TK-10, 24.7 µM (inactive); with RXF 393, 16.6 µM (inactive). Further, the GI50 is 18.6 µM (inactive) in the experiment on SN12C; 17.4 µM (inactive) in the experiment with NCI-H522; 31.8 µM (inactive) in the experiment with HOP-92; 24.1 µM (inactive) in the experiment on NCI-H23; > 100 µM (inactive) in the experiment with HOP-62; 74.1 µM (inactive) with NCI-H226.

Consider `COc1ccc(/C=C/C(=O)c2c(-c3ccccc3)nn(C)c(=O)c2N2CCCCC2)cc1`, for which the GI50 was 17.5 µM (inactive) with SF-539; 18.4 µM (inactive) with SNB-19; 13.9 µM (inactive) with UO-31; 20.7 µM in the experiment with HCT-15; 37.1 µM (inactive) with TK-10; 12 µM (inactive) with RXF 393. Further, the GI50 in the experiment with M14 is 20.7 µM (inactive); with SN12C it was 20.8 µM (inactive); with NCI-H522, 10.7 µM (inactive); in the experiment on HOP-92, 3.81 µM (inactive); in the experiment with NCI-H23, 14 µM (inactive).

`NC(=O)c1cc(-c2ccc(-n3ccnc3)cc2)nnc1O`: the GI50 in the experiment with SF-539, with SNB-19, with UO-31, with HL-60, in the experiment on MDA-MB-435 and in the experiment with DU-145 was > 100 µM (inactive) in each case. Also, the GI50 in the experiment on HCT-15 was > 100 µM; with TK-10, > 100 µM (inactive); in the experiment with RXF 393, > 100 µM (inactive); in the experiment with M14 it was > 100 µM (inactive); with HCC 2998, > 100 µM (inactive); with SN12C, > 100 µM (inactive). Also, the GI50 in the experiment on NCI-H522, in the experiment with HOP-92, in the experiment with NCI-H23, with PC-3 and in the experiment with HOP-62 was > 100 µM (inactive) each time.

With `CC1=Nc2nc3ccccc3n2C(C)(C)C1`, the GI50 with SF-539 is > 100 µM (inactive); in the experiment on SNB-19 it was > 100 µM (inactive); in the experiment on UO-31 it was > 100 µM (inactive); with MDA-MB-435 it was > 100 µM (inactive); with T47D, > 100 µM (inactive); with HCT-15 it was > 100 µM. The GI50 with TK-10, with RXF 393, with M14, in the experiment on NCI-H522, in the experiment on HOP-92 and with NCI-H23 was > 100 µM (inactive) in each case. Besides, the GI50 in the experiment with PC-3, in the experiment on HOP-62 and in the experiment on NCI-H226 was > 100 µM (inactive) throughout.
